# Measured values published in patent publication US8829035B2, “Agent for treatment or prevention of diseases associated with activity of neurotrophic factors” (Sumitomo Chemical Company, Limited, priority 2009, dated 2014).
# System: activity of 200 ng/mL of NGF (NXF promoter-driven luciferase in PC12 cells)
# Test: Luciferase reporter assay (NXF promoter) in PC12 cells: potentiation of NGF activity
# Assay type: cell-based, rat
# Design: key: +: Showed relatively weak potentiation (potentiation only exhibited at 10 μM); ++: Showed potentiation; +++: Showed particularly strong potentiation (2-fold or greater potentiation of the activity of 200 ng/mL of NGF at 1 μM)
# Description: The forward primer 5′-[…]-3′ and the reverse primer 5′-[…]-3′ were prepared as the PCR primers according to the sequence information for the NXF gene genome sequence (Accession Nos. AB054577 and NC—000085), and the PCR method was used to isolate from approximately 5 kbp upstream from the translated region of the NXF gene promoter portion to the vicinity of the transcription start site. For this, 1 μg of mouse genomic DNA (Takara) was used as the template, and the 2-step PCR reaction was carried out for 35 cycles, the conditions for which were 95° C./1 m in the denaturing step, and 68° C./8 m in the annealing and extension steps, to obtain the PCR product. The NXF promoter fragment was inserted into the SmaI site of the pGL3 Basic vector (Promega) in the upstream of luciferase gene to prepare a reporter plasmid that would express the luciferase enzyme driven by the NXF promoter.
# PC12 cells (available from the ATCC) were cultured using RPMI medium (GIBCO-BRL) with 5% FCS (GIBCO-BR) and 15% horse serum (GIBCO-BRL) added, and 1 mM in sodium pyruvate (GIBCO-BRL), at 37° C. in the presence of 5% CO2. After transfection in 10^6 of these PC12 cells for 2 days with 12 μg of the above-described reporter plasmid and 1 μg of pRC/RSV vector (Invitrogen) using the Lipofectamine 2000 reagent (Invitrogen), the medium was exchanged for fresh medium containing 40 mg/L of geneticin sulfate (GIBCO), and this was cultured continuously. Culturing was continued for approximately 1 month with medium exchange of the cultured medium containing 40 mg/L of geneticin sulfate (GIBCO) every several days, with the result that multiple colonies of the obtained cells were picked up. Among these, one of the colonies that induced luciferase activity in the presence of 40 ng/mL of NGF (Wako Pure Chemicals) was selected and used for the cells to evaluate the activity of the compounds below.
# These cells were set up in 96-well plates with 80% confluence, and the luciferase reporter assay was conducted using the Promega Steady Glo luciferase assay kit. The procedure was carried out overnight (approx. 16 hours) using culture medium containing the compound, and the Steady Glo substrate solution was added to the cells in half-diluted in PBS after removal of all remaining medium containing the compound. After this was allowed to stand for 30 minutes, the respective quantity of light produced was measured with a luminometer (Envision Perkin Elmer).
# The activity of the compounds for evaluation was measured as the potentiation of the activity of 200 ng/mL of NGF. For the experiment control wells, the negative control well had medium containing only a final concentration of 0.1% DMSO, the positive control well had medium containing a saturation concentration of NGF. In addition, a test well was set up containing 0.1% DMSO with 200 ng/mL of NGF added corresponding to a 0 compound concentration. When its luciferase activity was taken as a standard, the relative luciferase activity could be calculated for the test wells to which the compound solution (dissolved in DMSO and prepared to have a final DMSO concentration of 0.1%) had been added in addition to the 200 ng/mL of NGF, to find the potentiation of the activity of 200 ng/mL of NGF due to that compound.
# [1] = Test Example 4, same manner as Test Example 1, relative luciferase activity vs 200 ng/mL NGF alone
# [2] = Test Example 1, relative luciferase activity vs 200 ng/mL NGF alone, overnight (approx. 16 hours)
Structure (SMILES),Activity (potentiation of NGF activity) [1],Activity (potentiation of NGF activity) [2]
"Cc1nc2cc(-c3nc4cc(C#N)ccc4o3)ccc2n1C1CCOCC1 [Ex. 75, 5-(5-cyanobenzoxazol-2-yl)-2-methyl-1-(tetrahydropyran-4-yl)benzimidazole]",++,
"CCCn1cnc2cc(-c3nc4cc(Cl)ccc4o3)ccc21 [Ex. 135, 5-(5-chlorobenzoxazol-2-yl)-1-n-propylbenzimidazole]",++,
"c1ccc2oc(-c3ccc4c(c3)nc(-c3ncc[nH]3)n4C3CCOCC3)nc2c1 [Ex. 44, 5-(benzoxazol-2-yl)-2-(imidazol-2-yl)-1-(tetrahydropyran-4-yl)benzimidazole]",,++
"Cc1nc2cc(-c3nc4ccccc4o3)ccc2n1C(C)(C)C [Ex. 29, 5-(benzoxazol-2-yl)-2-methyl-1-tert-butylbenzimidazole]",,++
"Cc1nc2cc(-c3nc4ccccc4o3)ccc2n1CC1CCOCC1 [Ex. 84, 5-(benzoxazol-2-yl)-2-methyl-1-((tetrahydropyran-4-yl)methyl)benzimidazole]",++,
"Cc1nc2cc(-c3nc4cc(C(=O)O)ccc4o3)ccc2n1C1CCOCC1 [Ex. 97, 5-(5-carboxylbenzoxazol-2-yl)-2-methyl-1-(tetrahydropyran-4-yl)benzimidazole]",++,
"Cc1nc2cc(-c3nc4ccccc4o3)ccc2n1Cc1ccccn1 [Ex. 79, 5-(benzoxazol-2-yl)-2-methyl-1-(2-picolyl)benzimidazole]",++,
"Cc1nc2cc(-c3nc4ccccc4o3)ccc2n1CCNC(=O)OC(C)(C)C [Ex. 55, 5-(benzoxazol-2-yl)-1-(2-(tert-butoxycarbonylamino)ethyl)-2-methylbenzimidazole]",++,
"Cc1nc2cc(-c3nc4cc(OC(F)(F)F)ccc4o3)ccc2n1C1CCOCC1 [Ex. 76, 5-(5-trifluoromethoxybenzoxazol-2-yl)-2-methyl-1-(tetrahydropyran-4-yl)benzimidazole]",++,
"Cc1nc2cc(-c3nc4ccccc4o3)ccc2n1C1CCCCC1 [Ex. 16, 5-(benzoxazol-2-yl)-1-cyclohexyl-2-methylbenzimidazole]",,++
"CC(=O)OCC(c1ccccc1)n1c(C)nc2cc(-c3nc4ccccc4o3)ccc21 (centres unmarked) [Ex. 118, 5-(1-benzoxazol-2-yl)-1-(1-acetoxy-2-phenylethan-2-yl)-2-methylbenzimidazole]",++,
"c1ccc(-c2nc3cc(-c4nc5ccccc5o4)ccc3n2C2CCOCC2)nc1 [Ex. 21, 5-(benzoxazol-2-yl)-2-(2-pyridyl)-1-(tetrahydropyran-4-yl)benzimidazole]",,++
"Cc1nc2cc(-c3nc4ccccc4o3)ccc2n1Cc1ccc(C(=O)O)cc1 [Ex. 114, 5-(benzoxazol-2-yl)-1-(4-carboxyphenylmethyl)-2-methylbenzimidazole]",++,
"c1ccc(CCc2nc3cc(-c4nc5ccccc5o4)ccc3n2C2CCOCC2)cc1 [Ex. 68, 5-(benzoxazol-2-yl)-2-(2-phenylethyl)-1-(tetrahydropyran-4-yl)benzimidazole]",++,
"c1ccc(COCc2nc3cc(-c4nc5ccccc5s4)ccc3n2-c2ccccc2)cc1 [Ex. 1, 5-(benzothiazol-2-yl)-1-phenyl-2-(phenylmethoxy)methylbenzimidazole]",,+
"COCc1nc2cc(-c3nc4ccccc4s3)ccc2n1C1CCOCC1 [Ex. 6, 5-(benzothiazol-2-yl)-2-methoxymethyl-1-(tetrahydropyran-4-yl)benzimidazole]",,++
"c1cncc(-c2nc3cc(-c4nc5ccccc5o4)ccc3n2C2CCOCC2)c1 [Ex. 24, 5-(benzoxazol-2-yl)-2-(3-pyridyl)-1-(tetrahydropyran-4-yl)benzimidazole]",,++
"Cc1nc2cc(-c3nc4ccccc4o3)ccc2n1CCS(C)(=O)=O [Ex. 132, 5-(benzoxazol-2-yl)-1-(2-(methylsulfonyl)ethyl)-2-methylbenzimidazole]",++,

Structure (SMILES),Activity (potentiation of NGF activity) [1],Activity (potentiation of NGF activity) [2]
"Cc1nc2cc(-c3nc4ccccc4o3)c(Cl)cc2n1C1CCOCC1 [Ex. 112, 5-(benzoxazol-2-yl)-2-methyl-1-(tetrahydropyran-4-yl)-6-chlorobenzimidazole]",++,
"C(#Cc1nc2cc(-c3nc4ccccc4o3)ccc2n1C1CCOCC1)c1ccccc1 [Ex. 69, 5-(benzoxazol-2-yl)-2-(2-phenylethynyl)-1-(tetrahydropyran-4-yl)benzimidazole]",++,
"COc1ccc(-n2c(C)nc3cc(-c4nc5ccccc5o4)ccc32)cc1 [Ex. 15, 5-(benzoxazol-2-yl)-1-(4-methoxyphenyl)-2-methylbenzimidazole]",,+
"FC(F)(F)c1nc2cc(-c3nc4ccccc4o3)ccc2n1C1CCOCC1 [Ex. 27, 5-(benzoxazol-2-yl)-1-(tetrahydropyran-4-yl)-2-trifluoromethylbenzimidazole]",,++
"Cc1nc2cc(-c3nc4ccccc4o3)ccc2n1C(c1ccccc1)c1ccccc1 [Ex. 89, 5-(benzoxazol-2-yl)-2-diphenylmethyl-2-methylbenzimidazole]",++,
"COc1cccc(-n2c(C)nc3cc(-c4nc5ccccc5o4)ccc32)c1 [Ex. 31, 5-(benzoxazol-2-yl)-1-(3-methoxyphenyl)-2-methylbenzimidazole]",,++
"Cc1nc2cc(-c3cc4ccccc4[nH]3)ccc2n1C1CCOCC1 [Ex. 38, 5-(indol-2-yl)-1-(tetrahydropyran-4-yl)-2-methylbenzimidazole]",,++
"c1ccc(Cc2nc3cc(-c4nc5ccccc5o4)ccc3n2C2CCOCC2)cc1 [Ex. 61, 5-(benzoxazol-2-yl)-2-benzyl-1-(tetrahydropyran-4-yl)benzimidazole]",++,
"Cc1nc2cc(-c3nc4ccccc4o3)ccc2n1CC(C)C(=O)OC(C)(C)C (centres unmarked) [Ex. 121, 5-(benzoxazol-2-yl)-2-methyl-1-(2-tert-butoxycarbonyl-n-propyl)benzimidazole]",++,
"c1ccc2oc(-c3ccc4c(c3)nc(CC3CCOCC3)n4C3CCOCC3)nc2c1 [Ex. 111, 5-(benzoxazol-2-yl)-1-(tetrahydropyran-4-yl)-2-(tetrahydropyran-4-yl)methylbenzimidazole]",++,
"Cc1nc2cc(-c3nc4ccccc4o3)ccc2n1C(CO)c1ccccc1 (centres unmarked) [Ex. 120, 5-(1-benzoxazol-2-yl)-1-(2-phenylethanol-2-yl)-2-methylbenzimidazole]",++,
"Cc1nc2cc(-c3nc4ccccc4o3)ccc2n1CCC1CCOCC1 [Ex. 83, 5-(benzoxazol-2-yl)-2-methyl-1-(2-(tetrahydropyran-4-yl)ethyl)benzimidazole]",++,
"Cc1nc2cc(-c3nc4ccccc4o3)ccc2n1C1CCNCC1 [Ex. 35, 5-(benzoxazol-2-yl)-1-(piperidine-4-yl)-2-methylbenzimidazole]",,++
Cc1nc2cc(-c3nc4ccccc4o3)ccc2n1CC(=O)N1CCOCC1 [Ex. 107],+,
"Cc1nc2cc(-c3nc4ccccc4o3)ccc2n1C1CCCc2ccccc21 (centres unmarked) [Ex. 87, 5-(benzoxazol-2-yl)-2-methyl-1-(1,2,3,4-tetrahydronaphthalen-1-yl)benzimidazole]",++,
"Cc1nc2cc(-c3nc4cc(C5CCCCC5)ccc4o3)ccc2n1C1CCOCC1 [Ex. 72, 5-(5-cyclohexylbenzoxazol-2-yl)-2-methyl-1-(tetrahydropyran-4-yl)benzimidazole]",++,
Cc1nc2cc(-c3nc4ccccc4o3)ccc2n1CCN(C)C [Ex. 130],++,
